Source: PMC7216583 (Parasites & Vectors, 2020)
Where a name gives a salt, the structure may show the parent alone. Read-outs that look alike come from different tables or passages of the source.

Columns and labels:
[1] = tested on: Toxoplasma gondii RH-2F tachyzoites; test: microbe, parasite or virus in culture; conditions: 72 h
nonsense mutation = conditions: ref vendor brief description; read-out: EC50 nonsense mutation inhibition; cited from earlier work
β-adrenoceptor = biological target: β-adrenoceptor; design: method as in vendor brief description; conditions: ref vendor brief description; cited from earlier work
β2-adrenergic receptor = biological target: β2-adrenergic receptor; design: method as in vendor brief description; conditions: ref vendor brief description; cited from earlier work
CYP3A4 (P450) = tested on: CYP3A4 (P450); design: method as in vendor brief description; conditions: ref vendor brief description; cited from earlier work
CETP = tested on: CETP; design: method as in vendor brief description; conditions: ref vendor brief description; cited from earlier work
PDE5 = conditions: read-out: IC50 PDE5; ref vendor brief description; cited from earlier work
Factor Xa = tested on: Factor Xa; design: method as in vendor brief description; conditions: ref vendor brief description; cited from earlier work
[2] = biological target: angiotensin II type 1 (AT1) receptor; design: method as in vendor brief description; conditions: ref vendor brief description; cited from earlier work
S1P = tested on: S1P; design: method as in vendor brief description; conditions: ref vendor brief description; cited from earlier work
human muscarinic AChR M5 = biological target: human muscarinic AChR M5; design: method as in vendor brief description; conditions: ref vendor brief description; cited from earlier work
human muscarinic AChR M3 = biological target: human muscarinic AChR M3; design: method as in vendor brief description; conditions: ref vendor brief description; cited from earlier work
human muscarinic AChR M4 = biological target: human muscarinic AChR M4; design: method as in vendor brief description; conditions: ref vendor brief description; cited from earlier work
human muscarinic AChR M1 = biological target: human muscarinic AChR M1; design: method as in vendor brief description; conditions: ref vendor brief description; cited from earlier work
human muscarinic AChR M2 = biological target: human muscarinic AChR M2; design: method as in vendor brief description; conditions: ref vendor brief description; cited from earlier work
P-glycoprotein = conditions: cited from earlier work
tyrosinase = biological target: tyrosinase; design: method as in vendor brief description; conditions: ref vendor brief description; cited from earlier work
[3] = biological target: histamine 1 (H1) receptor; design: method as in vendor brief description; conditions: ref vendor brief description; cited from earlier work
PAFR = biological target: PAFR; design: method as in vendor brief description; conditions: ref vendor brief description; cited from earlier work
GSK-3β = tested on: GSK-3β; design: method as in vendor brief description; conditions: ref vendor brief description; cited from earlier work
[4] = biological target: H3K27 histone demethylase JMJD3/UTX; design: method as in vendor brief description; conditions: ref vendor brief description; cited from earlier work
HSP90α = conditions: read-out: IC50 HSP90α; ref library vendor description; cited from earlier work
PI3Kγ = tested on: PI3Kγ; design: method as in vendor brief description; conditions: ref vendor brief description; cited from earlier work
4-hydroxylation = tested on: 4-hydroxylation; design: method as in vendor brief description; conditions: ref vendor brief description; cited from earlier work
CYP2C9 = tested on: CYP2C9; design: method as in vendor brief description; conditions: ref vendor brief description; cited from earlier work
[5] = tested on: Toxoplasma gondii RH-2F tachyzoites
myeloperoxidase = conditions: read-out: IC50 myeloperoxidase; ref vendor brief description; cited from earlier work
class I PI3K = tested on: class I PI3K; design: method as in library vendor description; conditions: ref library vendor description; read-out: IC50 pan-class I PI3K; cited from earlier work
β3-adrenoceptor = tested on: β3-adrenoceptor; design: method as in vendor brief description; conditions: ref vendor brief description; cited from earlier work
5-HT1A = tested on: 5-HT1A; design: method as in vendor brief description; conditions: ref vendor brief description; cited from earlier work
dopamine D2 = tested on: dopamine D2; design: method as in vendor brief description; conditions: ref vendor brief description; cited from earlier work
noradrenaline α2C = tested on: noradrenaline α2C; design: method as in vendor brief description; conditions: ref vendor brief description; cited from earlier work
5-HT7 receptor = biological target: 5-HT7 receptor; design: method as in vendor brief description; conditions: ref vendor brief description; cited from earlier work
in vitro = conditions: human
5-HT2A = tested on: 5-HT2A; design: method as in vendor brief description; conditions: ref vendor brief description; cited from earlier work
GSK-3α = tested on: GSK-3α; design: method as in vendor brief description; conditions: ref vendor brief description; cited from earlier work
5-HT3 = biological target: 5-HT3; design: method as in vendor brief description; conditions: ref vendor brief description; cited from earlier work
sodium channel = tested on: sodium channel; design: method as in vendor brief description; conditions: ref vendor brief description; cited from earlier work
[6] = biological target: N-methyl-D-aspartate (NMDA) receptor; design: method as in vendor brief description; conditions: ref vendor brief description; cited from earlier work
nAChR = tested on: nAChR; design: method as in vendor brief description; conditions: ref vendor brief description; cited from earlier work
Flt-4 = tested on: Flt-4; design: method as in vendor brief description; conditions: ref vendor brief description; cited from earlier work
AXL = tested on: AXL; design: method as in vendor brief description; conditions: ref vendor brief description; cited from earlier work
Flt-1 = tested on: Flt-1; design: method as in vendor brief description; conditions: ref vendor brief description; cited from earlier work
Ret = tested on: Ret; design: method as in vendor brief description; conditions: ref vendor brief description; cited from earlier work
VEGFR-2 = tested on: VEGFR-2; design: method as in vendor brief description; conditions: ref vendor brief description; cited from earlier work
Kit = tested on: Kit; design: method as in vendor brief description; conditions: ref vendor brief description; cited from earlier work
20S proteasome β5 = tested on: 20S proteasome β5; design: method as in vendor brief description; conditions: read-out: IC50 CT-L activity of 20S proteasome β5; ref vendor brief description; cited from earlier work
LMP7 = tested on: LMP7; design: method as in vendor brief description; conditions: read-out: IC50 CT-L activity of 20S proteasome LMP7; ref vendor brief description; cited from earlier work
[7] = biological target: recombinant human mGlu3 receptors; design: method as in vendor brief description; conditions: ref vendor brief description; cited from earlier work
recombinant human mGlu2 = biological target: recombinant human mGlu2; design: method as in vendor brief description; conditions: ref vendor brief description; cited from earlier work
[8] = biological target: rat neurons expressing native mGlu2/3 receptors; design: method as in vendor brief description; conditions: ref vendor brief description; cited from earlier work
[9] = read-out: Parasite inhibition (%) mean, preliminary screen of compound library, mean
[10] = read-out: Parasite inhibition (%) mean, preliminary screen, mean

O=C(O)c1cccc(-c2noc(-c3ccccc3F)n2)c1 [PTC124 (Ataluren)]
inhibition of growth at 5 µM [1, 9]: -0.1%
EC50 (nonsense mutation): ~100 nM

CCc1cc2c(cc1CC)CC(NC[C@H](O)c1ccc(O)c3[nH]c(=O)ccc13)C2 [Indacaterol Maleate]
pKi β-adrenoceptor (β-adrenoceptor): Indacaterol is an ultra-long-acting β-adrenoceptor agonist with pKi of 7.36.
inhibition of growth at 5 µM [1, 9]: -8.9%

CC(C)(C)NCC(O)c1cc(O)cc(O)c1 (centres unmarked) [Terbutaline Sulfate]
IC50 (β2-adrenergic receptor): 53 nM
inhibition of growth at 5 µM [1, 9]: 40.1%

Cc1ccc(-c2c(-c3nn(C)c4ncnc(N5CC[C@H](N6CCCCC6)C5)c34)cnn2C)cc1 [PF-4981517]
IC50 (CYP3A4 (P450)): 30 nM
inhibition of growth at 5 µM [1, 9]: -8.9%

Cc1cc(C)c2c(c1)[C@@H](N(Cc1cc(C(F)(F)F)cc(C(F)(F)F)c1)c1nnn(C)n1)CCCN2C[C@H]1CC[C@H](C(=O)O)CC1 [Evacetrapib (LY2484595)]
inhibition of growth at 5 µM [1, 9]: 22.6%
IC50 (CETP): 5.5 nM

COc1ccc(CN=c2[nH]c(N3CCC[C@H]3CO)ncc2C(=O)NCc2ncccn2)cc1Cl [Avanafil]
inhibition of growth at 5 µM [1, 9]: 7.5%
IC50 (PDE5): 1 nM

O=C(NCC1CN(c2ccc(N3CCOCC3=O)cc2)C(=O)O1)c1ccc(Cl)s1 (centres unmarked) [Rivaroxaban (Xarelto)]
inhibition of growth at 5 µM [1, 9]: 0.4%

CCOc1nc2cccc(C(=O)O)c2n1Cc1ccc(-c2ccccc2-c2nc(=O)o[nH]2)cc1 [Azilsartan (TAK-536)]
inhibition of growth at 5 µM [1, 9]: 4.6%
IC50 [2]: 2.6 nM

CCCCCCCCc1ccc(CCC(N)(CO)CO)cc1 [Fingolimod (FTY720)]
IC50 (S1P): 0.033 nM
inhibition of growth at 5 µM [1, 9]: 10%

O=C(O[C@H]1C[N+]2(CCCOc3ccccc3)CCC1CC2)C(O)(c1cccs1)c1cccs1 [Aclidinium Bromide]
Ki (human muscarinic AChR M5): 0.16 nM
inhibition of growth at 5 µM ([1]; read-out: Parasite inhibition (%) mean): 1.8%
Ki (human muscarinic AChR M3): 0.14 nM
Ki (human muscarinic AChR M4): 0.21 nM
Ki (human muscarinic AChR M1): 0.1 nM
Ki (human muscarinic AChR M2): 0.14 nM

COC1CCN(C(=O)c2cc(Cc3n[nH]c(=O)c4ccccc34)ccc2F)CC1 [AZD2461]
P-glycoprotein substrate property (P-glycoprotein): AZD2461 is a poor P-glycoprotein substrate with lower affinity for Pgp than does olaparib.
inhibition of growth at 5 µM [1, 9]: 11%

Oc1ccc(OC2CCCCO2)cc1 (centres unmarked) [Deoxyarbutin]
inhibition of growth at 5 µM [1, 9]: 33.4%
IC50 (tyrosinase): 50 nM

Cc1cncc(CN2CCC(=C3c4ccc(Cl)cc4CCc4cccnc43)CC2)c1 [Rupatadine Fumarate]
inhibition of growth at 5 µM [1, 9]: 0.2%
Ki [3]: 102 nM
Ki (PAFR): 550 nM

Cn1sc(=O)n(Cc2ccccc2)c1=O [TDZD-8]
IC50 (GSK-3β): 2000 nM
inhibition of growth at 5 µM [1, 9]: 12.8%

O=C(O)CCNc1cc(N2CCc3ccccc3CC2)nc(-c2ccccn2)n1 [GSK J1]
IC50 [4]: 60 nM

CCNC(=O)c1noc(-c2cc(C(C)C)c(O)cc2O)c1-c1ccc(CN2CCOCC2)cc1 [AUY922 (NVP-AUY922)]
inhibition of growth at 5 µM [1, 10]: 8.2%

C[C@H](Nc1ncnc2[nH]cnc12)c1cc2cccc(Cl)c2c(=O)n1-c1ccccc1 [IPI-145 (INK1197)]
inhibition of growth at 5 µM [1, 9]: 1.9%
IC50 (PI3Kγ): 50 nM

CCCSc1nc(N[C@@H]2C[C@H]2c2ccc(F)c(F)c2)c2nnn([C@@H]3C[C@H](OCCO)[C@@H](O)[C@H]3O)c2n1 [Ticagrelor]
IC50 (CYP2C9): 10500 nM
inhibition of growth at 5 µM [1, 9]: 4.7%

O=N[O-].[Na+] [Sodium Nitrite]
Parasite inhibition (%) mean [5]: 49.5%
IC50 (myeloperoxidase): 1300 nM

FC(F)c1nc2ccccc2n1-c1nc(N2CCOCC2)nc(N2CCOCC2)n1 [ZSTK474]
IC50 (class I PI3K): 37 nM
inhibition of growth at 5 µM [1, 10]: 49.8%

Nc1nc(CC(=O)Nc2ccc(CCNC[C@H](O)c3ccccc3)cc2)cs1 [Mirabegron (YM178)]
EC50 (β3-adrenoceptor): 22.4 nM
inhibition of growth at 5 µM [1, 9]: 3.8%

O=C1[C@@H]2[C@H]3CC[C@H](C3)[C@@H]2C(=O)N1C[C@@H]1CCCC[C@H]1CN1CCN(c2nsc3ccccc23)CC1 [Lurasidone HCl, reference compound]
IC50 (5-HT1A): 6.75 nM
inhibition at 5 µM ([1]; read-out: Parasite inhibition (%) Mean ± SD): 80.4 ± 1.5%
IC50 (noradrenaline α2C): 10.8 nM
IC50 (5-HT7 receptor): 0.495 nM
viability (in vitro): 86.9%
viability at 5 µM (in vitro): 86.9 ± 1.7%
IC50 (5-HT2A): 2.03 nM

Cc1c[nH]c(-c2cnc(NCCNc3ccc(C#N)cn3)nc2-c2ccc(Cl)cc2Cl)n1 [CHIR-99021 (CT99021) HCl]
inhibition of growth at 5 µM [1, 9]: 43.9%
IC50 (GSK-3α): 10 nM

CCN(CC)CCOC(=O)c1ccc(N)cc1 [Procaine (Novocaine) HCl]
inhibition of growth at 5 µM [1, 9]: 3.7%
Kd (5-HT3): 1700 nM
IC50 (sodium channel): 60000 nM
IC50 [6]: 296000 nM
IC50 (nAChR): 45500 nM

COc1cc2nccc(Oc3ccc(NC(=O)C4(C(=O)Nc5ccc(F)cc5)CC4)cc3)c2cc1OC [Cabozantinib malate]
IC50 (Flt-4): 6 nM
IC50 (Flt-1): 12 nM
IC50 (VEGFR-2): 0.035 nM
inhibition of growth at 5 µM [1, 9]: 80.4%
viability at 72 h (in vitro; Host viability (%) mean): 43.1%

COC[C@H](NC(=O)c1cnc(C)s1)C(=O)N[C@@H](COC)C(=O)N[C@@H](Cc1ccccc1)C(=O)C1(C)CO1 (some centres unmarked) [Oprozomib (ONX 0912)]
IC50 (20S proteasome β5): 36 nM
inhibition of growth at 5 µM [1, 9]: 9%
IC50 (LMP7): 82 nM

N[C@@]1(C(=O)O)CS(=O)(=O)[C@H]2[C@H](C(=O)O)[C@H]21 [LY2140023 (LY404039)]
Ki [7]: 92 nM
inhibition of growth at 5 µM [1, 9]: 2.9%
Ki (recombinant human mGlu2): 149 nM
Ki [8]: 88 nM
